{"source": "patent US11542239B2", "about": "“Elagolix sodium compositions and processes” (AbbVie Inc., priority 2018, dated 2023)", "format_in_all_cases": "physicochemical", "key": {"[1]": {"assay": "BET specific surface area from nitrogen adsorption isotherm", "conditions": "isolated amorphous elagolix sodium powder, precipitation/isolation conditions vary per example", "description": "The BET (Brunauer, Emmett and Teller) specific surface area was determined from nitrogen adsorption isotherm at 77° K using a surface area analyzer (Tristar 3020, Micromeritics, Norcross, Ga.). A sample of approximately 1-2 g was first outgassed under vacuum for 2 hours at 50° C. prior to nitrogen adsorption experiment. The multipoint measurement method was used according to USP <846>. The quantity adsorbed was measured between 0.05 and 0.3 relative pressure. A minimum of 5 data points between this pressure range was determined to obtain the specific surface area using the BET equation."}, "[2]": {"assay": "Flow properties, Schulze ring shear tester (flow function coefficient)", "conditions": "isolated amorphous elagolix sodium powder, ffc=σ/fc", "description": "Flow properties of each sample were characterized using a Schulze ring shear tester RST-XS (Dietmar Schulze Schuttgutmesstechnik, Wolfenbiittel, Germany). A standard annular cell of a cross-sectional area of 24 cm^2 and a volume of 30 cm^3 is used to measure the yield loci. All experiments were performed under ambient conditions immediately after the sample was removed from the sample container. During each measurement, the powder sample was first pre-sheared under a pre-consolidation stress of 1 kPa until a steady-state was reached. The pre-sheared powder was then subjected to shear under four normal stress levels of […] to obtain the yield locus (plot of shear stress at failure as a function of the normal stress). Between each shear points, the sample was pre-consolidated at 1 kPa. From the yield locus, the major principle stress (σ) and unconfined yield strength (fc) were derived by drawing two critical Mohr stress circles with the software RST-CONTROL 95 (Dietmar Schulze Schuttgiit-messtechnik, Wolfenbiittel, Germany). The major principle stress (σ) was obtained from the Mohr stress circle which is tangential to the yield locus and intersects at the point of normal and shear stresses at steady state flow. The unconfined yield strength (fc) was obtained from the Mohr stress circle which is tangential to the yield locus and runs through the origin. Flow function coefficient (ffc=σ/fc) was used to characterize the flow of the powder sample."}, "[3]": {"assay": "Particle size distribution by laser diffraction (wet dispersion)", "conditions": "isolated amorphous elagolix sodium powder", "description": "Particle size distribution was measured by laser diffraction using a Malvern Mastersizer 2000S (Malvern Panalytical Ltd., Malvern, United Kingdom) in the wet dispersion mode. The liquid dispersion accessory was first filled with a solution of 0.025% w/v lecithin in HPLC n-heptane. After laser background intensity was measured, approximately 40 mg of sample was added directly to the liquid dispersion accessory to obtain a target laser obscuration between 5 and 22%. Particle size distribution measurement was started immediately upon addition of the sample. The following method parameters were used: Calculation theory—Mie; Measurement model—general purpose; Measurement sensitivity—normal; Dispersant refractive index—1.39; Background time—30 s; Measurement time—30 s; Stirrer speed—1500 rpm; Measurement cycle—1."}, "[4]": {"assay": "Bulk density in a graduated cylinder", "conditions": "isolated amorphous elagolix sodium powder", "description": "The bulk density of the sample was obtained by measurement in a graduated cylinder. A 50 mL graduated cylinder (readable to 1 mL) was used in all measurement. First, the tared weight of the cylinder was obtained with a balance (readable to ±0.01 g). Sufficient amount of sample was then transferred into the cylinder, gently to avoid compaction of the sample, to a volume between 30 and 50 mL. The total weight of the sample and cylinder was then measured with the balance (readable to ±0.01 g), and the net sample weight was calculated. The bulk density is the weight of the sample divided by the apparent volume (to the nearest graduated unit)."}, "[5]": {"assay": "Dry glass transition temperature of amorphous form"}}, "data": [{"compound": "COc1cccc(-c2c(C)n(Cc3c(F)cccc3C(F)(F)F)c(=O)n(C[C@H](NCCCC(=O)[O-])c3ccccc3)c2=O)c1F.[Na+]", "note": "[Compound (I), sodium 4-({(1R)-2-[5-(2-fluoro-3-methoxyphenyl)-3-{[2-fluoro-6-(trifluoromethyl)phenyl]methyl}-4-methyl-2,6-dioxo-3,6-dihydropyrimidin-1(2H)-yl]-1-phenylethyl}amino)butanoate]", "values": [{"measurement": "specific surface area", "setting": "[1]; listed as Example 14", "result": 10.4, "unit": "m^2/g"}, {"measurement": "specific surface area", "setting": "[1]; listed as Example 15", "result": 49.0, "unit": "m^2/g"}, {"measurement": "specific surface area", "setting": "[1]; listed as Example 16", "result": 0.3, "unit": "m^2/g"}, {"measurement": "specific surface area", "setting": "[1]; listed as Example 17", "result": 35.3, "unit": "m^2/g"}, {"measurement": "specific surface area", "setting": "[1]; listed as Example 18", "result": 32.2, "unit": "m^2/g"}, {"measurement": "flow function coefficient (ffc)", "setting": "[2]; listed as Example 14", "result": 1.8}, {"measurement": "flow function coefficient (ffc)", "setting": "[2]; listed as Example 15", "result": 2.8}, {"measurement": "flow function coefficient (ffc)", "setting": "[2]; listed as Example 17", "result": 1.2}, {"measurement": "flow function coefficient (ffc)", "setting": "[2]; listed as Example 18", "result": 6.8}, {"measurement": "volume-averaged particle size Dv10", "setting": "[3]; listed as Example 14", "result": 9, "unit": "μm"}, {"measurement": "volume-averaged particle size Dv10", "setting": "[3]; listed as Example 15", "result": 17, "unit": "μm"}, {"measurement": "volume-averaged particle size Dv10", "setting": "[3]; listed as Example 17", "result": 6, "unit": "μm"}, {"measurement": "volume-averaged particle size Dv10", "setting": "[3]; listed as Example 18", "result": 204, "unit": "μm"}, {"measurement": "bulk density", "setting": "[4]; listed as Example 17", "result": 0.17, "unit": "g/mL"}, {"measurement": "bulk density", "setting": "[4]; listed as Example 18", "result": 0.33, "unit": "g/mL"}, {"measurement": "dry glass transition temperature (Tg)", "setting": "[5]", "result": "about 108 °C"}]}]}
